Laboratory results from patent publication US10214738B2, “Production of high purity chondroitinase ABC” (priority 2017, dated 2019).
“Also recorded” adds a separate entry of the source.

Experiments:
[1] = molecular target: T1, chondroitinase ABC (ChABC) (Proteus vulgaris, UniProt P59807, L125P); test: relative enzyme inhibition assay of ChABC by selected polysaccharide (chondroitin sulfate C substrate, absorbance at 232 nm); format: biochemical; conditions: for Activity (apparent ChABC activity in presence of selected polysaccharide) / % rA (percentage of residual activity): 0.2% chondroitin sulfate C, 0.2% selected polysaccharide, 50 mM pH8 Tris HCl, 37° C., 20 min; for Activity (apparent ChABC activity in presence of selected polysaccharide): reference without polysaccharide 121 U/L; for % rA (percentage of residual activity): relative to assay without polysaccharide; for effect on ChABC enzyme activity (in words): equal amount of substrate (chondroitin sulfate C) and polysaccharide
T1 sequence (P59807 25-1021 L125P): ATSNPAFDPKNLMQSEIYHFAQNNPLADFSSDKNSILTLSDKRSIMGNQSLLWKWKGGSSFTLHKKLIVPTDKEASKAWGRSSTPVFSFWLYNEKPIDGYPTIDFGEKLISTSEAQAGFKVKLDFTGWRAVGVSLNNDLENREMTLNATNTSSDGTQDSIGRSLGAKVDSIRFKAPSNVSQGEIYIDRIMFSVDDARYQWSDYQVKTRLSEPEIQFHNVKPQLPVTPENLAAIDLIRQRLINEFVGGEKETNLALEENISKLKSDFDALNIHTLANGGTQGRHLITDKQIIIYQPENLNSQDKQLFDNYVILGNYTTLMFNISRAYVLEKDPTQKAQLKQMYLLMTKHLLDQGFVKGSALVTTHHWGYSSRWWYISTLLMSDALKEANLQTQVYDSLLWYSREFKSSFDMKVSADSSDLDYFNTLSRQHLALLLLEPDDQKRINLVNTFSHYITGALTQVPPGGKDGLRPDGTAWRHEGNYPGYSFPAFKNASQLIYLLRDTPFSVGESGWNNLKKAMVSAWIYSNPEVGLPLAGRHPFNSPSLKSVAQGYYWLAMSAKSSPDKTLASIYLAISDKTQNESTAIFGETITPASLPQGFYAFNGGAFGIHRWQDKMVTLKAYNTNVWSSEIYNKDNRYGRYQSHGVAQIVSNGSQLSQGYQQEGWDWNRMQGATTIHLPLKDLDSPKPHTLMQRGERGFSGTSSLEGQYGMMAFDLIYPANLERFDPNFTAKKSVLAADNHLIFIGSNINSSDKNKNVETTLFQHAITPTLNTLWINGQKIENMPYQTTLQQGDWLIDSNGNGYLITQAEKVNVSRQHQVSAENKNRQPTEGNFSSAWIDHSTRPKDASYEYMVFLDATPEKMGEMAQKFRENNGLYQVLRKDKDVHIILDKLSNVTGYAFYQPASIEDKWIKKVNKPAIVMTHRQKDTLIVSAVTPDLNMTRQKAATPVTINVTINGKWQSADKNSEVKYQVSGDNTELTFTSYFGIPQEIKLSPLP
Description: There are several existing methods for quantitative study of protein-small molecule interactions such as differential scanning calorimetry, quartz crystal microbalance, fluorescence anisotropy, and the like. However, these methods require complex equipment, are expensive and time consuming, requiring protein immobilization or protein labeling. In order to save time and reduce costs, semi-quantitative assessment methods can be applied, such as enzyme inhibition assays. In the present invention, the relative binding affinity is evaluated by monitoring the inhibition of ChABC by the selected polysaccharide. The stronger the observed inhibitory effect, the higher the affinity between the ChABC and the polysaccharide. A more detailed experimental setup is shown in Example 1. […] Thus, heparin was identified as the most suitable ligand among the selected screened polysaccharides for constructing the affinity column.
In the present invention, it is necessary to identify molecules that have a similar structure to the substrate of ChABC but are inert to enzymatic degradation. In order to test polysaccharides that could actually bind to the active site of ChABC, a relative enzyme inhibition assay was conducted on the selected polysaccharide:
490 μL of the substrate solution was incubated at 37° C. for at least 15 minutes containing 0.2% chondroitin sulfate C, 0.2% selected polysaccharide and 50 mM pH8 Tris HCl buffer. 10 μL of ChABC with activity of about 100 U/L was incubated at 37° C. for at least 3 minutes. After incubation, the two solutions were gently mixed. The mixture was then incubated at 37° C. for 20 minutes to perform enzymatic degradation of chondroitin sulfate. After 20 minutes, the reaction was terminated by inactivating ChABC by heating at 100° C. for 2 minutes. In addition to inactivating the mixture immediately without incubation for 20 minutes, a blank control was performed in the same manner. The absorbance of the heat inactivated solution at 232 nm was then measured and the apparent activity was calculated as shown in Equation 1. The assay in the absence of selected polysaccharide was also conducted in the same manner as a reference.
[formula] • where • Abs=Difference in absorbance • =OD232nm in sample tubes−OD232nm in blank tubes • E=Millimolar extinction coefficient of unsaturated disaccharides from Chondroitin Sulfate C=5.5 • t=Reaction time=20 min • Vt=Total volume of the assay=0.5 mL • Vs=Volume of enzyme used=0.01 mL • DF=Dilution factor • 1000=Convert U/mL to U/L
[formula] • where • % rA=percentage of residual activity • A(poly)=the activity presence of selected polysaccharide • A(ref)=the […] of the assay without the presence of selected polysaccharide

[2] = molecular target: T1, chondroitinase ABC (ChABC); test: incubation of ChABC alone with heparin (change in absorbance, enzymatic degradation); format: biochemical; conditions: ChABC incubated alone with heparin; no change in absorbance
Description: Therefore, immobilization of heparin as a ligand for affinity purification of ChABC is the most suitable choice among the selected polysaccharide derivatives.

Row | Substance | Activity (apparent ChABC activity in presence of selected polysaccharide) [1] | % rA (percentage of residual activity) [1] | effect on ChABC enzyme activity (in words) [1] | susceptibility to enzymatic degradation by ChABC [2]
1 | heparin | 5.1 U/L | 4.2% | almost completely inhibited ChABC activity; also recorded: strongest inhibitory effect on ChABC | not subject to the enzymatic degradation activity of ChABC
2 | polygalacturonic acid | 117 U/L | 97% | no significant effect on enzyme activity | 
3 | Alginic acid | 119 U/L | 98% | no significant effect on enzyme activity | 
